# Source: patent publication US9895345B2, “Use of Lappaol F to inhibit tumor cell growth” (The Research Foundation Foundation for the State University …, priority 2013, dated 2018)
# Entries after “also recorded” stand apart in the source; their conditions may differ.
# Key:
# RKO cells [1] = experiment: MTT cell proliferation assay; assay type: cell-based, Human; settings: read-out: estimated absolute EC50 of cell growth suppression
# Protocol: (§1) MTT cell proliferation assays were performed as follows. Briefly, cells seeded in 12-well plate with or without drug treatment were incubated with 0.5 mg/ml 3-[4, 5-dimethylthiazol-2-yl]-2, 5-diphenyl tetrazolium bromide (MTT) for 1-4 hours. The resulting formazan precipitate was dissolved in isopropanol with 0.04 M HCl. Absorbance was read with a Bio-Rad SmartSpec 3100 at 570 nm with background subtraction read at 690 nm.
# MDA-MB-231 cells [2] = experiment: MTT cell proliferation assay; assay type: cell-based, Human; settings: read-out: estimated absolute EC50 of cell growth suppression
# Protocol: as §1
# MCF-7 cells [3] = experiment: MTT cell proliferation assay; assay type: cell-based, Human; settings: read-out: estimated absolute EC50 of cell growth suppression
# Protocol: as §1
# RKO cells [4] = experiment: Mitotic index by DAPI staining; assay type: cell-based, Human; settings: 50 μM, 72 hours
# Protocol: (§2) FIG. 2: Lappaol F induces G1 and G2 cell cycle arrest. (A) Flow cytometry cell cycle analyses performed on cells treated with vehicle (DMSO) or Lappaol F (50 μM) for 72 hrs. (B) DAPI staining of RKO cells treated with Lappaol F (50 μM) for 72 hours. The number of mitotic cells over the total cells (mitotic index, MI) is also shown.
# (§3) Cell cycle profile was determined by flow cytometry as follows. For determining the mitotic index, cells treated with or without Lappaol F were stained with 4′, 6-diamidino-2-phenylindole (DAPI). The number of mitotic cells was counted under a fluorescence microscope. Over 600 cells were counted in each sample and experiments were repeated at least three times.
# [5] = system: p21, p27, CDK2, cyclin B and CDK1; experiment: Cell cycle regulatory protein expression by Western blotting; assay type: cell-based, Human; settings: 50 μM, different cell lines
# Protocol: FIG. 3: Regulation of key cell cycle regulatory proteins by Lappaol F. A-D. The indicated cells were treated with vehicle (DMSO) or Lappaol F (50 μM) for indicated time and protein expression of different cell cycle regulatory protein was analyzed by Western blotting. “C”: vehicle-treated control.
# (§4) Western blotting was done by standard protocols. Sources of the antibodies are as follows: antibodies for p21 and GAPDH were from Santa Cruz Biotechnology (Santa Cruz, Calif.); cyclin B1 antibody was from BD bioscience (San Jose, Calif.); p27 antibody was from Cell Signaling Technology (Danvers, Mass.). CDK1 and CDK2 were from Assay Biotechnology (Sunnyvale, Calif.). Northern blot analysis was performed. and a full-length p21 cDNA was used as a probe for detecting the expression of p21 mRNA.
# c-Myc, MDM2 and HuR = experiment: Oncogenic protein expression by Western blotting; assay type: cell-based, Human; settings: 50 μM
# Protocol: FIG. 8: Lappaol F down regulates the expression of several oncogenic proteins commonly overexpressed in human cancers and linked to oncogenic transformation. A-C. Lappaol F suppresses the expression of c-Myc (A), MDM2 (B) and HuR (C). Cells were untreated (“C”) or treated with Lappaol F (50 μM) for the indicated times and Western blot analyses were performed using the indicated antibodies.
# as §4
# [6] = system: tumor cell lines of different tissue types; experiment: Initial cytotoxic screening (colony formation, microscopy); assay type: cell-based, Human; settings: colon, breast, lung, cervix lines; 50 μM, 72 hours
# Protocol: (§5) FIG. 1: A. The chemical structure of Lappaol F. B & C. […] Cells shown were treated with or without Lappaol F (50 μM) for 72 hours. D & E. Results of 3-[4, 5-dimethylthiazol-2-yl]-2, 5-diphenyl tetrazolium bromide (MTT) assays showing Lappaol F inhibits tumor cell growth in time- and dose-dependent manners in different cancer cell lines. F & G. MCF10A non-tumorigenic breast epithelial cells treated with Lappaol F (50 μM) for 3 days (F) or 6 days (G). After treatment, cells were harvested for MTT assays (G) or photographs were taken under a phase contrast microscope (F). H. Results of colony formation assay showing that Lappaol F inhibits colony formation by A549 (lung), HCT116 (colon) and DU145 (prostate) tumor cells. I-N. Results of MTT assays showing Lappaol F suppresses cell growth in leukemia, melanoma and sarcoma cell lines.
# RKO cells [7] = experiment: Flow cytometry cell cycle analysis; assay type: cell-based, Human; settings: 50 μM, 72 hrs
# Protocol: as §2, §3
# MDA-MB-231 cells [8] = experiment: Flow cytometry cell cycle analysis; assay type: cell-based, Human; settings: 50 μM, 72 hrs
# Protocol: as §2, §3
# HeLa cells = experiment: Flow cytometry cell cycle analysis; assay type: cell-based, Human; settings: 50 μM, 72 hrs
# Protocol: as §2, §3
# MCF-7 cells [9] = experiment: Flow cytometry cell cycle analysis; assay type: cell-based, Human; settings: 50 μM, 72 hrs
# Protocol: as §2, §3
# wild-type p53 = experiment: Wild-type p53 expression by Western blotting; assay type: cell-based, Human
# Protocol: (§6) FIG. 7: Lappaol F suppresses expression of mutant-p53 by reducing its half-life. A-C. Lappaol F has minimal effect on wild-type p53 protein expression in cells (MCF-7 and RKO) expressing wild-type p53 (A & C); however, Lappaol F strongly reduces mutant-p53 protein expression in MDA-MB-231, MDA-MB-468 and T47D cells (B & C). D & E. Treatment of Lappaol F reduces mutant-p53 protein half-life in MDA-MB-231 cells. Cells were first treated with or without with Lappaol F (50 μM) for 24 hours, cycloheximide (50 μg/ml) was then added into the cell culture medium for 0-8 hours and cells were harvested at 0, 2, 4, 6 and 8 hours after cycloheximide was added. Samples were subjected to Western blot analysis and the half-life of mutant p53 for cells treated with or without Lappaol F was determined F & G. Lappaol F decreases mutant p53 protein half-life in T47D cells. Mutant-p53 half-life was determined as described.
# as §4, with “Northern blot analysis was performed. and a full-length p21 cDNA was used as a probe for detecting the expression of p21 mRNA.” left out
# [10] = system: p21 promoter in RKO p53-deficient (p53-/-) cells; experiment: p21 promoter luciferase assay; assay type: cell-based, Human; settings: 50 μM, 24 hours
# Protocol: (§7) FIG. 6: Lappaol F induces p21-promoter activation in cells with wild-type p53 and defective-p53. A&B MCF-7, MDA-MB-231 and RKO cells were untreated (DMSO) or treated with Lappaol F (50 μM) for 48 hrs; cells were then split into two parts; one part was used to analyze p21 mRNA expression by Northern blotting (A) and another part was utilized for p21 protein analysis by Western blotting (B). A full-length p21 cDNA was used as a probe for Northern blot analysis. C & D. p21 promoter luciferase activity in Lappaol F-treated and untreated cells with different p53 status. RKO and MCF-7 cells express the wild type-p53 protein whereas MDA-MB-231 expressing the mutant-p53. Hela cells harbor human papilloma virus; and p53 protein is not functional in these cells. Cells, transfected with p21 promoter luciferase construct, were untreated (DMSO) or treated with Lappaol F (50 μM) for 24 hours then analyzed for luciferase activity.
# (§8) Luciferase assays were performed as follows. Briefly, cells transiently transfected with the p21-promoter luciferase construct were treated with or without Lappaol F (50 μM). Twenty-four hours later, luciferase activity of each cell lysate was analyzed using the Luciferase assay system (Thermo Scientific, Rockford, Ill.) with LUMAT LB9507 luminometer (Berthold Technologies, Germany).
# [11] = system: p21 promoter in RKO p53-proficient (p53+/+) cells; experiment: p21 promoter luciferase assay; assay type: cell-based, Human; settings: 50 μM, 24 hours
# Protocol: as §7, §8
# [12] = system: MCF10A non-cancerous breast epithelial cells; experiment: MTT assay / phase contrast microscopy on non-tumorigenic cells; assay type: cell-based, Human; settings: 50 μM, 3 days or prolonged to six days
# Protocol: as §5, §1
# mutant-p53 = experiment: Mutant-p53 expression by Western blotting; assay type: cell-based, Human
# Protocol: as §6
# as §4, with “Northern blot analysis was performed. and a full-length p21 cDNA was used as a probe for detecting the expression of p21 mRNA.” left out
# HeLa tumor xenografts = experiment: HeLa xenograft tumor growth in nude mice; assay type: in vivo, BALB/c nude mice
# Text: All animal studies were approved and performed according to Animal Care and Use Guidelines of the Animal Ethics Committee at Guangzhou University of Chinese Medicine (Document No. syxk (Yue) 2008-0001). BALB/c nude mice (female, 4-5 weeks old) were first subcutaneously injected with 5×10^6 of HeLa cells on the back to establish tumor xenografts. Nine-days after tumor cell injection, mice with tumor volume of 90 mm^3-290 mm^3 were randomized into 3 groups; the average initial tumor volumes in each treatment group of mice were 161.28±23.9 mm^3 (for vehicle control), 160.7±17 7 mm^3 (for mice treated with Lappaol F 5 mg/kg) and 144.5±20 5 mm^3 (for mice treated with Lappaol F 10 mg/kg), respectively. Mice were then treated with Lappaol F (5 mg/kg/d, N=7; or 10 mg/kg/d, N=6) or with equivalent volume of vehicle (5% DMSO plus 5% Tween 80 in 5% glucose solution, 5 mL/kg/day, N=7) by intravenous injection for 15 days. Tumor size was monitored by measuring two perpendicular diameters with a caliper every 4 days. The tumor volume was calculated as volume=length×width^2×0.5. Cases of death and body weight in mice were monitored daily. The animal experiments were terminated on day 15 (tumor size exceeded a mean diameter of 20 mm in control animals) by sacrificing mice according to the guidelines. Tumor xenografts were then stripped and weighed. All results were expressed as Mean±standard error of the mean (SEM). Effects of various treatments were analyzed using the ONE-WAY ANOVA analysis and P-values <0.05 were considered statistically significant.
# [13] = system: caspases 8, 9 and 3 in HeLa cells; experiment: Caspase activation by Western blotting; assay type: cell-based, Human; settings: 50 μM
# Protocol: (§9) FIG. 4: Effect of Lappaol F on caspase activation. The indicated cells were treated with vehicle (DMSO) or Lappaol F (50 μM) for indicated time. Activation of caspases 8, 9 and 3 (indicated by reduced levels of procaspases) was analyzed by Western blotting using indicated antibodies. “C”: vehicle-treated control.
# as §4
# [14] = system: caspases 8 and 9 in MCF-7 cells; experiment: Caspase activation by Western blotting; assay type: cell-based, Human; settings: 50 μM
# Protocol: as §9, §4
# [15] = system: caspases 8, 9 and 3 in MDA-MB-231 cells; experiment: Caspase activation by Western blotting; assay type: cell-based, Human; settings: 50 μM
# Protocol: as §9, §4
# [16] = system: p21 promoter (RKO, MCF-7, Hela, MDA-MB-231); experiment: p21 promoter luciferase assay in four cell lines; assay type: cell-based, Human; settings: 50 μM, 24 hours
# Protocol: as §7, §8
compound,measurement,setting,value
COc1cc([C@H]2Oc3c(OC)cc(C[C@H]4COC(=O)[C@@H]4Cc4cc(OC)c5c(c4)[C@H](CO)[C@@H](c4ccc(O)c(OC)c4)O5)cc3[C@@H]2CO)ccc1O [Lappaol F],EC50,RKO cells [1],25.2 µM
same,EC50,MDA-MB-231 cells [2],16.8 µM
same,EC50,MCF-7 cells [3],13.3 µM
same,mitotic nuclei (mitotic index),RKO cells [4],no mitotic nuclei were observed
same,expression levels of CDK inhibitors p21 and p27,[5],strikingly elevated
same,"levels of CDK2, cyclin B and CDK1",[5],clearly reduced
same,"expression of c-Myc, MDM2 and HuR oncoproteins","c-Myc, MDM2 and HuR",strongly down-regulates
same,growth inhibitory effect against tumor cell lines,[6],strong growth inhibitory effect
same,cell cycle arrest phase,RKO cells [7],mainly arrested in 4N G2- (or M)-phase
same,cell cycle arrest phase,MDA-MB-231 cells [8],mainly arrested in 4N G2- (or M)-phase
same,cell cycle arrest phase,HeLa cells,predominantly arrested in 2N G1-phase
same,sub-2N cell death population (sub-G1),HeLa cells,15%
same,cell cycle arrest phase,MCF-7 cells [9],predominantly arrested in 2N G1-phase
same,levels of wild-type p53,wild-type p53; MCF-7 cells,no significant influence
same,expression levels of wild-type-p53,wild-type p53; RKO cells,did not significantly affect
same,upregulation of p21 promoter activity,[10],8.3 folds
same,induction of the p21 promoter,[11],3.5 fold
same,cytotoxicity towards MCF10A non-cancerous breast epithelial cells,[12],minimal cytotoxicity
same,levels of mutant-p53,mutant-p53; MDA-MB-231 cells,significantly reduced
same,mutant-p53 expression,mutant-p53; MDA-MB-468 and T47D cells,strongly inhibited
same,inhibition of tumor growth relative to vehicle,"HeLa tumor xenografts; 5 mg/kg/day i.v., 15 days",54%
same,inhibition of tumor growth relative to vehicle,"HeLa tumor xenografts; 10 mg/kg/day i.v., 15 days",64%
same,lethality / body weight change in mice,"HeLa tumor xenografts; 5 and 10 mg/kg/day i.v., 15 days",without significant body weight changes; also recorded: did not observe lethality or weight loss
same,effect on HeLa xenografts by intraperitoneal injection,HeLa tumor xenografts; intraperitoneal injection,did not show any significant effect
same,caspase activation,[13],elicited caspases 9 and 3 activation
same,caspase activation,[14],no clear evidence of caspase activation
same,caspase activation,[15],"activation of caspases 8, 9 and 3 was observed"
same,p21 promoter activity,[16],significantly enhanced
